Test results as given in patent US20240076699A1, “BIOSYNTHESIS OF SUBSTITUTED COMPOUNDS AND CANNABINOIDS” (Invizyne Technologies, Inc., priority 2022, published 2024).

Legend:
[1] = Solubility in nonane overlay versus water; assay type: physicochemical
[2] = target: Bovine serum albumin (BSA) (Bos taurus, UniProt P02769); assay: BSA binding seen during extraction; conditions: reaction mixture extraction
From the text: In one embodiment, upon formation of the THCA compound of the present invention, the compound is purified to isolate the produced THCA. The extraction of CBGA and THCA into ethylacetate formed an emulsion which could only be partially broken with the addition of hexane. Bovine serum albumin (BSA) binds both CBGA and THCA tightly and thus not all of the product is recoverable in the organic phase of the purification process. However, acid precipitation of the BSA with the addition of 1% HCl allows for the denaturation of BSA and subsequent unbinding of the CBGA and THCA to allow extraction and purification. In one embodiment, the HCl is added directly to the reaction mixture, which is then incubated for about 10 minutes to assure full denaturation of BSA. The mixture is then centrifuged for about 30 minutes at 4000 g. After centrifuging the mixture, the CBGA and THCA coprecipitate into pelleted form. The pellet is then washed with water until the water reaches a neutral pH. The pellet is then resuspended in methanol using vigorous vortexing. The methanol mixture was rotavapped over a water bath at 40° C., and the resulting oil was resuspended in ethanol. The THCA then precipitates as a brown oil. The reaction mixture is then filtered and washed with water and then resuspended in hexane. The hexane was then rotavapped to remove mass added to the product by excess […]. […]

[3] = nLC-MS/MS of CBGA and dCBGA samples after one hour; assay type: in vitro ADME
Method: (§1) Additional samples were subjected to nano-scale liquid chromatographic tandem mass spectrometry (nLC-MS/MS). Samples were prepared using 2 μL of standard and 198 μL of 50:50 water:acetonitrile in 0.1% formic acid. A 1 μL sample was injected.

[4] = target: T1, methionine adenosyltransferase (MAT) from Thermococcus kodakarensis (tk) (Thermococcus kodakarensis, UniProt Q5JF22); conditions: 5 mM met or d3-met, 10 μM MAT, 1 h room temperature
T1 sequence (Q5JF22 1-405): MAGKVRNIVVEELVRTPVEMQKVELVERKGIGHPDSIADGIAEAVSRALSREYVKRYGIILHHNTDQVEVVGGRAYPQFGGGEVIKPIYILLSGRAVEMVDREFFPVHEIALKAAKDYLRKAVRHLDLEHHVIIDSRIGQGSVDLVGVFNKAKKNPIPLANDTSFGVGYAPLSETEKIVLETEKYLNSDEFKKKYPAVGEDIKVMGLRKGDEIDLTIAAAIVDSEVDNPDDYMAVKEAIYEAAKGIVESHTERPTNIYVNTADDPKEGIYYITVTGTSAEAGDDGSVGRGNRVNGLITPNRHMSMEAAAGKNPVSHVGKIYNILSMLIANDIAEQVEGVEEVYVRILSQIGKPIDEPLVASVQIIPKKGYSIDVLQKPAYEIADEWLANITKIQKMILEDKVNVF

[5] = target: T2, methionine adenosyltransferase (MAT) from Methanocaldococcusjannaschii (mj) (Methanocaldococcus jannaschii, UniProt Q58605); conditions: 5 mM met or d3-met, 10 μM MAT, 1 h room temperature
T2 sequence (Q58605 1-406): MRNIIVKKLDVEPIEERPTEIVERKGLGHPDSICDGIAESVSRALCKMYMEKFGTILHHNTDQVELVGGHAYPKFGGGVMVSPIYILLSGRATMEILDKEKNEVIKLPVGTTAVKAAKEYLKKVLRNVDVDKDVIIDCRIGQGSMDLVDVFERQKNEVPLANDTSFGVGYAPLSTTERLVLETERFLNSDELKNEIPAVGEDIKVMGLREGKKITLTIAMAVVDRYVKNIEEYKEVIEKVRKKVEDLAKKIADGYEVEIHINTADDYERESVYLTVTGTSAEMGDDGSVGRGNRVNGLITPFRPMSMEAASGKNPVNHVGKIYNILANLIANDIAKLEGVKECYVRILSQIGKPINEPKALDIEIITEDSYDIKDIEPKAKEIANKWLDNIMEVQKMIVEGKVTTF

[6] = nLC-MS/MS comparison of CBGA and dCBGA after one hour (degradation); assay type: in vitro ADME; conditions: matrix not stated
Method: as §1
Table 10 compares nLC-MS/MS data for the CBGA samples and dCBGA samples after one hour.
FIG. 26 illustrates a graph comparing CBGA and dCBGA. Sample 1, Sample 2, and Sample 3 are shown left to right for both CBGA and dCBGA.

[7] = results in an inactive metabolite; cited from earlier work

Sequence of Bovine serum albumin (BSA) (P02769 25-607): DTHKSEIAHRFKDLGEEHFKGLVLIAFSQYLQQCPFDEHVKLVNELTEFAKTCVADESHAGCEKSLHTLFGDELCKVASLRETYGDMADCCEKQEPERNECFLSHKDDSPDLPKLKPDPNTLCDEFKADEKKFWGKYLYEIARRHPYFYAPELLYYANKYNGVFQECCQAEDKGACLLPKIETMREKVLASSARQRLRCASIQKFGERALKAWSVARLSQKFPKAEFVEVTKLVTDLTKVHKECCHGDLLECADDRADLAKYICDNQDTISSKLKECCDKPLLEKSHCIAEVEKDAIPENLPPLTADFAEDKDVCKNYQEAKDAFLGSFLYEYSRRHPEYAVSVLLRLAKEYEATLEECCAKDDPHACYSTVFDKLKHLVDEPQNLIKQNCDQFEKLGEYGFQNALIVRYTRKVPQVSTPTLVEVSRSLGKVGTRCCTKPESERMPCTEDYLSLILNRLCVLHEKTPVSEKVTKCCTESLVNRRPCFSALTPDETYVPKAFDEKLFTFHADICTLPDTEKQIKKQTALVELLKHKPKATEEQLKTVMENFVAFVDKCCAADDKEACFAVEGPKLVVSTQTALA

Structure (SMILES): CCCCCc1cc(O)c(C/C=C(\C)CCC=C(C)C)c(O)c1C(=O)O [CBGA, cannabigerolic acid, reference compound]
- solubility in water compared with nonane [1]: more soluble in water than nonane
- binding by BSA [2]: tightly
- degradation after one hour, CBGA compared with dCBGA [3]: CBGA is significantly more degraded after one hour than dCBGA

Structure (SMILES): CCCCCc1cc2c(c(O)c1C(=O)O)[C@@H]1C=C(C)CC[C@H]1C(C)(C)O2 [THCA, tetrahydrocannabinolic acid]
- binding by BSA [2]: tightly

Structure (SMILES): CSCC[C@H](N)C(=O)O [met, methionine, reference compound]
- MAT activity on substrate (Pi released per hour) [4]: equally active
- MAT activity on substrate (Pi released per hour) [5]: equally active

Structure (SMILES): CCCCCc1cc(O)c(C/C=C(\C)CCC=C(C)C)c(O)c1C(=O)O [CBGA, cannabigerolic acid]
- degradation after one hour compared with dCBGA [6]: significantly more degraded after one hour than dCBGA

Structure (SMILES): [2H]C([2H])([2H])SCC[C@H](N)C(=O)O [d3-met, d3-L-methionine]
- MAT activity on substrate (Pi released per hour) [4]: equally active
- MAT activity on substrate (Pi released per hour) [5]: equally active

Structure (SMILES): C=C(C)[C@@H]1CCC(C)=C[C@H]1c1c(O)cc(CCCCC)cc1O [CBD, cannabidiol]
- metabolites with cleavage of the 5′ pentyl tail [7]: ~25%

Structure (SMILES): CCCc1cc(O)c(C/C=C(\C)CCC=C(C)C)c(O)c1C(=O)O [CBGVA, cannabierovarinic acid]
- solubility in nonane [1]: limited solubility

Structure (SMILES): CCCCCc1cc(O)c(C/C=C(\C)CCC=C(C)C)c(O)c1C(=O)O [dCBGA, d11-cannabigerolic acid]
- degradation after one hour, CBGA compared with dCBGA [3]: CBGA is significantly more degraded after one hour than dCBGA
